Test results taken from patent publication US6703536B2, “Disposable absorbent article having a skin care composition containing an enzyme inhibitor” (The Procter & Gamble Company, priority 1998, dated 2004).
Where a name gives a salt, the structure may show the parent alone.

How the values were obtained:
[1] = molecular target: protease activity in feces; test: General Fecal Enzymes Method (casein-resorufin cleavage); format: biochemical, infant; settings: fecal suspension, casein-resorufin substrate, pH 7.8, 37° C. for 60 minutes
Description: (§1) Pooled infant feces (at least five different samples) are collected in a manner to keep them free of urine and contamination and mixed with water to obtain a weight by weight (w/w) mixture (e.g., 1:50 w/w). This mixture is then mixed thoroughly to obtain a homogeneous suspension by homogenization or sonication. […] (Also, to ensure complete linearity the final absorbance should never exceed 1.5 OD405 units). If the activity of the pooled infant feces is outside this range, it is not possible to accurately determine IC50 values for putative protease inhibitors. However, the range of enzyme activity may be adjusted by increasing or decreasing the dilution factor accordingly for each enzyme. If this is not possible, a different group of subjects should be used to obtain the sample pool.
The general method described above for obtaining a sample of feces suitable for use in Specific Fecal Enzyme Methods can be easily adapted by one skilled in the art to obtain appropriate samples of feces suitable for use in the General Fecal Enzymes Method listed below without undue experimentation.
To test the efficacy of protease inhibitors against the protease activity in feces, 50 μL of inhibitor and 50 μL of fecal suspension are added to a 1.5 mL microcentrifuge tube. The microcentrifuge tube is mixed by inversion and incubated at 25° C. for 45 minutes. Then, 50 μL of protease buffer (200 mM TRIS buffer containing 20 mM CaCl2, pH 7.8) is added to the microcentrifuge tube. The microcentrifuge tube is again mixed by inversion and incubated at 25° C. for 45 minutes. […] The microcentrifuge tube is again mixed by inversion and incubated at 37° C. for 60 minutes for the substrate cleavage reaction to take place. Then, 480 μL of trichloroacetic acid (5% w/v) is added to stop the reaction and precipitate any unreacted casein-resorufin. The microcentrifuge tube is mixed by inversion incubated at 37° C. for 15 minutes. […] Then, 400 μL of the supernatant is added to 600 μL of assay buffer (0.5 M TRIS, pH 8.8) in a cuvette. […] The same procedure is repeated without the putative inhibitor. […] Before the start of the reaction, A and Ai are nearly zero. […] The rates, vi and v, and the inhibitor concentration [I] are used to calculate IC50 according to the equation expressed above.

[2] = molecular target: chymotrypsin activity in feces; test: Fecal Chymotrypsin Activity (Specific Fecal Enzyme Method); format: biochemical; settings: pooled infant fecal suspension, pH 7.6, 25° C.; read-out: IC50 Specific Fecal Enzyme Methods Chymotryp.
Description: The following is a general description of a method for obtaining a sample of feces suitable for use in Fecal Protease Methods. However, one skilled in the art will be able to adapt the method to obtain appropriate samples of feces suitable for use in any of the Specific Fecal Protease Methods listed below (i.e., lipase, urease, and amylase) without undue experimentation. […] Pooled infant feces (at least five different samples) are collected in a manner to keep them free of urine and contamination and mixed with water to obtain a weight by weight (w/w) mixture (e.g., 1:50 w/w). This mixture is then mixed thoroughly to obtain a homogeneous suspension by homogenization or sonication. […] (Also, to ensure complete linearity the final absorbance should never exceed 1.5 OD405 units). If the activity of the pooled infant feces is outside this range, it is not possible to accurately determine IC50 values for putative protease inhibitors. However, the range of enzyme activity may be adjusted by increasing or decreasing the dilution factor accordingly for each enzyme. If this is not possible, a different group of subjects should be used to obtain the sample pool. […] The cuvette is mixed by inversion and incubated at 25° C. for 5 minutes. […] The rate of substrate cleavage in the presence of inhibitor (vi) is the slope of a plot relating the excess absorbance (i.e., the absorbance at 405 nm minus the absorbance at 490 nm) versus time. The same procedure is repeated without the putative inhibitor. The rate of substrate cleavage in the absence of inhibitor (v) is the slope of a plot relating the excess absorbance versus time. The rates, vi and v, and the inhibitor concentration [I] are used to calculate IC50 according to the equation expressed above.

[3] = molecular target: trypsin activity in feces; test: Fecal Trypsin Activity (Specific Fecal Enzyme Method); format: biochemical; settings: pooled infant fecal suspension, pH 8.2, 25° C.; read-out: IC50 Specific Fecal Enzyme Methods Trypsin
Description: (§2) The following is a general description of a method for obtaining a sample of feces suitable for use in Fecal Protease Methods. However, one skilled in the art will be able to adapt the method to obtain appropriate samples of feces suitable for use in any of the Specific Fecal Protease Methods listed below (i.e., lipase, urease, and amylase) without undue experimentation.
as §1
To test the efficacy of protease inhibitors against the trypsin activity in feces, inhibitor and trypsin buffer (50 mM TRIS, 20 mM CaCl2, pH 8.2) are added in a cuvette to obtain a final volume of 0.8 mL. To this mixture, 0.1 mL of substrate (3 mM Cbz-arginine-p-nitroanilide) is added to the cuvette. The cuvette is mixed by inversion and incubated at 25° C. for 5 minutes. A volume of 0.1 mL of fecal suspension is added to the cuvette, mixed and the absorbance at 405 nm minus the absorbance at 490 nm are measured over 5 minutes at 25° C. (The absorbance at 490 nm is a correction factor for the background absorbance due to the particulate fecal material, i.e., “interference”). The rate of substrate cleavage in the presence of inhibitor (vi) is the slope of a plot relating the excess absorbance (i.e., the absorbance at 405 nm minus the absorbance at 490 nm) versus time. The same procedure is repeated without the putative inhibitor. The rate of substrate cleavage in the absence of inhibitor (v) is the slope of a plot relating the excess absorbance versus time. The rates, vi and v, and the inhibitor concentration [I] are used to calculate IC50 according to the equation expressed above.

LAP activity in feces = test: Fecal LAP Activity (Specific Fecal Enzyme Method); format: biochemical; settings: pooled infant fecal suspension, pH 7.2, 25° C.; read-out: IC50 Specific Fecal Enzyme Methods LAP
Description: as §2, §1
To test the efficacy of protease inhibitors against LAP activity in feces, inhibitor and LAP buffer (50 mM sodium phosphate, pH 7.2) are added in a cuvette to obtain a final volume of 0.95 mL. To this mixture, 0.03 mL of substrate (6 mM L-Leucine-p-nitroanilide) is added to the cuvette. The cuvette is mixed by inversion and incubated at 25° C. for 5 minutes. A volume of 0.02 mL of fecal suspension is added to the cuvette, mixed and the absorbance at 405 nm minus the absorbance at 490 nm measured over 5 minutes at 25° C. The rate of substrate cleavage in the presence of inhibitor (vi) is the slope of a plot relating the excess absorbance (i.e., the absorbance at 405 nm minus the absorbance at 490 nm) versus time. The same procedure is repeated without the putative inhibitor. The rate of substrate cleavage in the absence of inhibitor (v) is the slope of a plot relating the excess absorbance versus time. The rates, vi and v, and the inhibitor concentration [I] are used to calculate IC50 according to the equation expressed above.

| IC50 [2] [µM] | IC50 [3] [µM] | IC50 (LAP activity in feces) [µM] | SMILES | IC50 [1] [µM] |
| --- | --- | --- | --- | --- |
| – | – | – | NCCc1ccc(S(=O)(=O)F)cc1 [4-(2-aminoethyl)-benzenesulfonylfluoride hydrochloride] | 217 |
| 100 | 100 | > 3000 | O=C(O)CN(CCN(CC(=O)O)CC(=O)O)CC(=O)O [EDTA, ethylenediamine tetraacetic acid] | – |
